Assay results reported in patent US10973832B2, “Muscarinic M1 receptor agonists” (Heptares Therapeutics Limited, priority 2011, dated 2021).

Legend:
[1] = test system: CA1 region of rat hippocampal slices; test: CA1 cell firing (fEPSP amplitude); type: cell-based; settings: five point cumulative concentration-response, 6 slices averaged
Protocol: Rat hippocampal slices of […] thickness were cut in chilled (<4° C.) artificial cerebrospinal fluid (aCSF, composition in mM: NaCl 127, KCl 1.6, KH2PO4 1.24, MgSO4 1.3, CaCl2 2.4, NaHCO3 26 and D-glucose 10) using vibratome. Slices were maintained in oxygenated (95% O2/5% CO2) aCSF at room temperature for at least 1 hr prior to electrophysiological recording, after which they were transferred to an interface chamber and constantly perfused with warmed (30° C.) oxygenated aCSF at a flow rate of 1.5-3 ml·min−1. Schaffer collaterals were then stimulated (1-20 V, 0.1 ms pulse width, 0.033 Hz) with a concentric bipolar electrode to evoke field excitatory post synaptic potentials (fEPSPs) recorded from the stratum radiatum of the CA1 region.
Experiments were performed to examine the effect of compound compared to […] carbachol (CCh), on the amplitude of fEPSPs in the CA1 region of rat hippocampal slices. 1 μM CCh was initially applied until steady-state, followed by wash, before performing a five point cumulative concentration-response to compound. Each compound was tested on 6 slices and results averaged. Drug preparation; compound was dissolved in 100% DMSO at a stock concentration of 30 mM, and diluted according to requirements, carbamoylcholine chloride (CCh) was purchased from Sigma (Cat #C4382) and dissolved at a stock concentration of 1 mM in ddH2O.

Rats = test: Irwin profile; type: in vivo
Protocol: The method, which detects the principal effects of a test substance on behaviour and physiological function, follows that described by Irwin (1968) Psychopharmacologia. Cholinergic side effects are potentially visible in the behavioural readout of the Irwin assay, and an absence of these side effects can be taken as an indication that agonism of the M2 and M3 receptors is not significant in vivo.
Rats are administered the test substance or its vehicle, and are observed in simultaneous comparison with a control group. Behavioural modifications, physiological and neurotoxicity symptoms, rectal temperature and pupil diameter are recorded according to a standardized observation grid derived from that of Irwin. The grid contains the following items: death, convulsions, tremor, Straub tail, altered activity, jumping, abnormal gait (rolling, tiptoe), motor incoordination, altered abdominal muscle tone, loss of grasping, akinesia, catalepsy, loss of traction, loss of balance, fore-paw treading, writhing, piloerection, stereotypies (sniffing, chewing, head movements), head-twitches, scratching, altered respiration, aggression, altered fear/startle, altered reactivity to touch, ptosis, exophthalmia, loss of righting reflex, loss of corneal reflex, analgesia, defecation/diarrhea, salivation, lacrimation, rectal temperature (hypothermia/hyperthermia) and pupil diameter (myosis/mydriasis). […]

[2] = target: T1, human muscarinic M3 receptor (Homo sapiens, UniProt P20309); test: Phospho-ERK1/2 assay, muscarinic M3; type: cell-based; settings: for Emax: CHO, read-out: % Emax cf. ACh (M3)
T1 construct: expressed in transfected cells
T1 sequence (P20309 whole entry): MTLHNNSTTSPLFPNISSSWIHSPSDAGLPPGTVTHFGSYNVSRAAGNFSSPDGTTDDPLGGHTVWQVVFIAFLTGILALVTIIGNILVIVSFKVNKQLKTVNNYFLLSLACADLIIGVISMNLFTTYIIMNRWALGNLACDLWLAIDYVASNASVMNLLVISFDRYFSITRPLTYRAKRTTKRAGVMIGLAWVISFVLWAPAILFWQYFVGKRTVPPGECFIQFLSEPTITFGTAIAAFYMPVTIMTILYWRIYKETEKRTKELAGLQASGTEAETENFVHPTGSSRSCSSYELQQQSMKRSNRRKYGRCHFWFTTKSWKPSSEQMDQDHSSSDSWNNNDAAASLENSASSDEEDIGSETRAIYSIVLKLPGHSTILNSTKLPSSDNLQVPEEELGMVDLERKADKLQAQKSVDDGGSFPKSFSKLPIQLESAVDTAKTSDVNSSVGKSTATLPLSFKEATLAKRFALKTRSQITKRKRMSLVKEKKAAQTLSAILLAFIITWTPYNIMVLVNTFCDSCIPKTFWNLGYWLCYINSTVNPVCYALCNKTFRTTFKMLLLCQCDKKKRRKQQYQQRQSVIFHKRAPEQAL
Summary of the method: (§1)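 Read-out: AlphaScreen SureFire signal for phospho-ERK1/2 in lysates of stably transfected CHO cells, read after 2 h in the dark. Cells were serum-starved overnight and given agonist for 5 min at 37 °C. Values are pEC50 and Emax.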

[3] = target: T2, human muscarinic M2 receptor (Homo sapiens, UniProt P08172); test: Phospho-ERK1/2 assay, muscarinic M2; type: cell-based; settings: for Emax: CHO, read-out: % Emax cf. ACh (M2)
T2 sequence (P08172 1-466): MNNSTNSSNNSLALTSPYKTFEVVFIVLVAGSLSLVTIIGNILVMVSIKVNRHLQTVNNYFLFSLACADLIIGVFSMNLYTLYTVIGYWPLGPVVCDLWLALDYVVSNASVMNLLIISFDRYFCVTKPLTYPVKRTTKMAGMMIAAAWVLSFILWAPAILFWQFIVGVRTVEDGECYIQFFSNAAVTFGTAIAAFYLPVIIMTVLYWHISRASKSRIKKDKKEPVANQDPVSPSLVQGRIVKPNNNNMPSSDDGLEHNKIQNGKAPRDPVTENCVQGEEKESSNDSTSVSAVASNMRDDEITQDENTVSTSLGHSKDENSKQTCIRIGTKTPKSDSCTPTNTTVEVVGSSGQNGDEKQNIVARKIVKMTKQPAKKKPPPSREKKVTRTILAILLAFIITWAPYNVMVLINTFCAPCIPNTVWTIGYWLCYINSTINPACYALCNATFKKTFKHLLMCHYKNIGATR
Summary of the method: as §1

[4] = test system: scopolamine-induced amnesia; test: Passive avoidance; type: in vivo; settings: for significance of reversal of scopolamine-induced amnesia: p<0.05 Bonferroni post hoc test; for reversal of scopolamine-induced amnesia: dose range 3, 10, 30 mg/kg po, scopolamine 1 mg/kg i.p.
Protocol: (§2) FIGS. 1-4 show the efficacy of the compounds of the invention. FIGS. 1-3 relate to the passive avoidance assay described in part B. Studies were carried out as described previously by Foley et al., (2004) Neuropsychopharmacology. In the passive avoidance task scopolamine administration (1 mg/kg, i.p.) at 6 hours following training rendered animals amnesic of the paradigm. A dose range of 3, 10, and 30 mg/kg (po) free base, administered 90 minutes prior to the training period via oral gavage, was examined.
as §2, with “Studies” for “FIGS. 1-4 show the efficacy of the compounds of the invention. FIGS. 1-3 relate to the passive avoidance assay described in part B. Studies”

SMILES | EC50 [1] | Irwin observation grid, effects on any parameter vs vehicle (Rats; 5, 10, 20 and 40 mg/kg, 15, 30, 60, 120 and 180 minutes) | EC50 [2] | Emax [2] | EC50 [3] | Emax [3] | effect compared with donepezil (0.1 mg/kg, i.p.) positive control ([4]; 10 mg/kg, FIG. 3) | effect compared with donepezil (0.1 mg/kg, i.p.) positive control ([4]; 10 and 30 mg/kg, FIG. 2) | significance of reversal of scopolamine-induced amnesia ([4]; acute 10 mg/kg po, FIG. 3) | significance of reversal of scopolamine-induced amnesia ([4]; acute 10 and 30 mg/kg, FIG. 2) | reversal of scopolamine-induced amnesia ([4]; 90 minutes prior to training) | Irwin observation grid, effects on any parameter vs vehicle (Rats; 3, 10, 30 and 75 mg/kg po, 15, 30, 60, 120, 180 minutes and 24 hours) | ED50 ([4]; po, free base, 90 minutes prior to training, scopolamine 1 mg/kg i.p. 6 hours after training, read-out: approximate ED50, reversal of scopolamine-induced amnesia)
CCOC(=O)N1CCC[C@H](N2CCC(C(=O)NC3(C)CCC3)CC2)CC1 [Example 65, ethyl (4S)-4-{4-[(1-methylcyclobutyl)carbamoyl]piperidin-1-yl)azepane-1-carbondate] | 2.05 µM | No significant effects on any parameter were observed | > 20 µM | 11% | > 20 µM | 7% | not significantly different to that produced by the cholinesterase inhibitor donepezil | not significantly different to that produced by the cholinesterase inhibitor donepezil | significant effects | significant effects | reverse scopolamine-induced amnesia of the paradigm in a dose-dependent manner | – | –
CCOC(=O)N1CCCC(N2CCC(C(=O)NC3(C)CCC3)CC2)CC1 (stereo not shown) [Example 27, ethyl 4-(4-((1-methylcyclobutyl)carbamoyl)piperidin-1-yl)azepane-1-carboxylate] | 1.21 µM | – | > 20 µM | 5% | > 20 µM | 56% | – | – | – | – | reverse scopolamine-induced amnesia of the paradigm in a dose-dependent manner | No effects on any parameter were observed at any time point | ~10 mg/kg
